What all share (format): biochemical
Assay [1] concerns the target iNOS (Homo sapiens, UniProt P35228). In words: Assay Protocol for NOS Activity: formation of L-[3H]Citrulline from L-[3H]Arginine, iNOS. As for the experimental part: (§1) NOS activity is measured as the formation of L-[2,3,4,5-^3H]Citrulline from L-[2,3,4,5-^3H]Arginine. The incubation buffer (100 uL) contained; 100 mM TES, pH 7.5, 5 μM FAD, 5 μM FMN, 10 μM BH4, 0.5 mM NADPH, 0.5 mM DTT, 0.5 mg/mL BSA, 2 mM CaC12, 10 ug/mL calmodulin (bovine), 1 μM L-Arg, 0.2 uCi L-[2,3,4,5-^3H]Arg, and the inhibitor in aqueous DMSO (max. 5%). The reaction is initiated by addition of enzyme. Incubations are performed at room temperature for 30 minutes and stopped by the addition of an equal volume of quenching buffer consisting of 200 mM sodium citrate, pH 2.2, 0.02% sodium azide. Reaction products are separated by passing through a cation exchange resin and quantitated as cpm by scintillation counting.

Assay [2] has as its target ncNOS (Homo sapiens, UniProt P29475). In words: Assay Protocol for NOS Activity: formation of L-[3H]Citrulline from L-[3H]Arginine, ncNOS. Here is the method:
as §1

Assay [3] addresses ecNOS (Homo sapiens, UniProt P29474). As to the kind of experiment: Assay Protocol for NOS Activity: formation of L-[3H]Citrulline from L-[3H]Arginine, ecNOS. Here is the method:
as §1

[4] abbreviates: 1 μM L-Arg, room temperature, 30 minutes, read-out: iNOS (IC50).
[5] abbreviates: 1 μM L-Arg, room temperature, 30 minutes, read-out: ncNOS (IC50).
Setting [6] is: 1 μM L-Arg, room temperature, 30 minutes, read-out: ecNOS (IC50).

Counter-ions that a name gives are not always drawn. Like-named read-outs stand apart in the source and are kept apart here.

In general, IC50 refers to the midpoint of a concentration-inhibition curve. For `N=C1CCS[C@H]2CCCC[C@@H]2N1` (racemic) [Example 17, (±)-trans-Decahydro-4-imino-benzo[b]-1,4-thiazepine Acetic Acid Salt], the IC50 in assay [1] (setting [4]), in assay [2] (setting [5]) and in assay [3] (setting [6]) was above 50 µM each time.

Regarding `NC1=NCCNCC1` [Example 1, Hexahydro-5-imino-(1H-1,4-diazepine Dihydrochloride], the IC50 in assay [1] (setting [4]), in assay [2] (setting [5]) and in assay [3] (setting [6]) was above 50 µM in each case.

As for `NC1=NCCSCC1` [Example 2, Hexahydro-5-imino-1,4-thiazepine Hydrochloride], the IC50 in assay [1] (setting [4]) is below 10 µM; in assay [2] (setting [5]) it was below 10 µM; in assay [3] (setting [6]), above 10 µM.

With `NC1=NCCOCC1` [Example 3, Hexahydro-5-imino-1,4-oxazepine Hydrochloride.], the figures for the IC50 in assay [1] (setting [4]), in assay [2] (setting [5]) and in assay [3] (setting [6]) were below 50 µM, below 10 µM and below 50 µM, respectively.

As for `CCCC1CSCCC(N)=N1` (stereo not drawn) [Example 4, Hexahydro-5-imino-3-propyl-1,4-thiazepine Hydrochloride], the concentration for half-maximal inhibition (IC50) in assay [1] is below 1 µM; in assay [2] it was below 10 µM; in assay [3] it was below 50 µM.

For the compound `CCCC1CSCCNC1=N` (stereo not drawn) [Example 5, Hexahydro-5-imino-6-propyl-1,4-thiazepine Hydrochloride], the IC50 in assay [1] (setting [4]), in assay [2] (setting [5]) and in assay [3] (setting [6]) was above 50 µM throughout.

`CC1CC(N)=NCCS1` (stereo not drawn) [Example 6, Hexahydro-5-imino-7-methyl-1,4-thiazepine Hydrochloride]: the IC50 was below 10 µM in assay [1] (setting [4]), below 1 µM in assay [2] (setting [5]) and below 10 µM in assay [3] (setting [6]).

As for `CC1CN=C(N)CCS1` (stereo not drawn) [Example 7, Hexahydro-5-imino-2-methyl-1,4-thiazepine Hydrochloride], the figures for the IC50 in assay [1] (setting [4]), in assay [2] (setting [5]) and in assay [3] (setting [6]) were below 10 µM, below 1 µM and below 10 µM, respectively.

Turning to `CC(C)=CCC1CSCCNC1=N` (stereo not drawn) [Example 8, Hexahydro-5-imino-6-(3-methyl-2-n-butenyl)-1,4-thiazepine Hydrochloride], the IC50 in assay [1] (setting [4]), in assay [2] (setting [5]) and in assay [3] (setting [6]) was above 50 µM throughout.

For `CC(C)=CCC1CSCCC(=N)N1` (stereo not drawn) [Example 9, Hexahydro-5-imino-3-(3-methyl-2-n-butenyl)-1,4-thiazepine Hydrochloride], the IC50 in assay [1] (setting [4]) was below 1 µM; in assay [2] (setting [5]), below 50 µM; in assay [3] (setting [6]), above 50 µM.

For `CC(C)CC1CSCCNC1=N` (stereo not drawn) [Example 10, Hexahydro-5-imino-6-(2-methyl-propyl)-1,4-thiazepine Hydrochloride], the IC50 in assay [1] (setting [4]) is below 50 µM; in assay [2] (setting [5]) it was above 50 µM; in assay [3] (setting [6]), above 50 µM.

With `CC(C)CC1CSCCC(N)=N1` (stereo not drawn) [Example 11, Hexahydro-5-imino-3-(2-methyl-propyl)-1,4-thiazepine Hydrochloride], the IC50 is below 1 µM in assay [1] (setting [4]), below 10 µM in assay [2] (setting [5]) and above 50 µM in assay [3] (setting [6]).

As to `CC1CSCCN=C1N` (stereo not drawn) [Example 12, Hexahydro-5-imino-6-methyl-1,4-thiazepine Hydrochloride], the IC50 in assay [1] (setting [4]) was above 50 µM; in assay [2] (setting [5]), below 10 µM; in assay [3] (setting [6]), below 50 µM.

With `CC1CSCCC(N)=N1` (stereo not drawn) [Example 13, Hexahydro-5-imino-3-methyl-1,4-thiazepine Hydrochloride], the IC50 was below 1 µM in assay [1] (setting [4]), below 10 µM in assay [2] (setting [5]) and below 10 µM in assay [3] (setting [6]).

Turning to `CCC1CSCCC(N)=N1` (stereo not drawn) [Example 14, Hexahydro-5-imino-3-ethyl-1,4-thiazepine Hydrochloride], the results for the IC50 in assay [1] (setting [4]), in assay [2] (setting [5]) and in assay [3] (setting [6]) were below 1 µM, below 10 µM and below 50 µM, respectively.

`CCCCC1CSCCC(N)=N1` (stereo not drawn) [Example 15, Hexahydro-5-imino-3-butyl-1,4-thiazepine. Hydrochloride]: the IC50 in assay [1] (setting [4]) was below 1 µM; in assay [2] (setting [5]) it was below 10 µM; in assay [3] (setting [6]), above 50 µM.

As for `C=C(C)CC1CSCCC(=N)N1` (stereo not drawn) [Example 16, Hexahydro-5-imino-3-(2-methyl-3-propenyl)-1,4-thiazepine Hydrochloride.], the IC50 in assay [1] (setting [4]) was below 1 µM; in assay [2] (setting [5]), below 10 µM; in assay [3] (setting [6]), below 50 µM.

Turning to `CCC[C@H]1CSCCC(N)=N1` [Example 18, Hexahydro-5-imino-3(S)-propyl-1,4-thiazepine, Acetic Acid Salt], the IC50 in assay [1] is below 1 µM; in assay [2] it was below 1 µM; in assay [3] it was below 10 µM.

In the case of `CCC[C@@H]1CSCCC(=N)N1` [Example 19, Hexahydro-5-imino-3(R)-propyl-1,4-thiazepine Acetic Acid Salt], the IC50 was below 10 µM in assay [1], below 10 µM in assay [2] and below 50 µM in assay [3].

In the case of `CN1CCN=C(N)CC1` [Example 20, Hexahydro-5-imino-1-methyl-1H-1,4-diazepine Hydrochloride.], the results for the IC50 in assay [1] (setting [4]), in assay [2] (setting [5]) and in assay [3] (setting [6]) were below 50 µM, above 50 µM and above 50 µM, respectively.
